Experimental data: article PMC11642016 (International Journal of Molecular Sciences, 2024)
Where “and” joins values, the source holds several entries; their conditions need not be identical. Equal values may be shown once. Read-outs that look alike come from different tables or passages of the source.

Assays:
HEK293T WT cells = experiment: CellTiter-Glo cell viability assay, HEK293T WT; conditions: for HEK293T WT Cell viability (% of controll): dose–response, individual replicates
Procedure: (§1) Primary fibroblast cultures were prepared from human skin biopsies and maintained in DMEM supplemented with 10% FBS, 1% penicillin-streptomycin, and 1% MEM Non-Essential Amino Acids Solution (Thermo Fisher Scientific). […] All cell lines were cultured in a humidified atmosphere at 37 °C and 5% CO2, passaged twice a week, and the experiments were performed on cells between passage 5 and 15. The cell lines were routinely screened for the absence of mycoplasma infection (DAPI staining).
(§2) The effects of the synthesized compounds on cell viability were measured using the CellTiter-Glo® luminescent cell viability assay (Promega, Madison, WI, USA), according to the manufacturer’s instructions. Briefly, cells were seeded onto a flat-bottomed, white 96-well plate (BRANDplates, cat. no.: 781965)), with the following densities: PANC-1: 750 cells/well, Fadu: 2000 cells/well, primary fibroblasts: 2000 cells/well, HEK293T WT: 1000 cells/well, HEK293T CLPP^−/−: 2500 cells/well. After seeding, cells were incubated for a further 48 h before treatment. Cells were treated with the compounds for 72 h. Three concentrations (25.0 µM; 8.3 µM; 2.8 µM) were applied during the initial cell viability screening, while for the determination of dose–response curves, 1.5-fold serially diluted compound concentrations were applied (range: 26 µM–0.7 µM). After treatment, the luminescence signal was recorded using a microplate reader (BioTek Synergy 2 Multi-Mode Reader, BioTek, Winooski, VT, USA).
(§3) Data analysis was performed using GraphPad Prism 9.5.0 software (GraphPad Software, San Diego, CA, USA). […] The dose–response curves were generated by four-parameter nonlinear regression, and the IC50 values were determined as the means ± SEM of the best-fit values of 3 independent measurements. The R^2 values were consistently above 0.93, indicating a strong fit of the model to the experimental data (Supplementary S.89). […] Dunnett’s post hoc test was applied to adjust for multiple comparisons, minimizing the likelihood of false positive results. Assumptions for ANOVA, including normality (assessed via QQ plots) and homogeneity of variance (tested using the Brown–Forsythe test), were verified. The following significance levels were applied: * p < 0.05, ** p < 0.01, *** p < 0.001, **** p < 0.0001. […] The tumor selectivity of the compounds was quantitatively characterized by the selectivity index (SI). This parameter was calculated as the ratio of the average best-fit IC50 value for primary fibroblasts and the best-fit IC50 value for the corresponding tumor cells (PANC-1 or Fadu).

Fadu cells = experiment: CellTiter-Glo luminescent cell viability assay, Fadu; conditions: for viability at 2.8 µM: read-out: Cell Viability (% of Control) 2.8 µM, Fadu; for viability at 2.8 µM / viability at 8.3 µM / viability at 25 µM: mean ± SD, n = 2; for viability at 8.3 µM: read-out: Cell Viability (% of Control) 8.3 µM, Fadu; for viability at 25 µM: read-out: Cell Viability (% of Control) 25 µM, Fadu
PANC-1 cells = experiment: CellTiter-Glo luminescent cell viability assay, PANC-1; conditions: for viability at 2.8 µM: read-out: Cell Viability (% of Control) 2.8 µM, PANC-1; for viability at 2.8 µM / viability at 8.3 µM / viability at 25 µM: mean ± SD, n = 2; for viability at 8.3 µM: read-out: Cell Viability (% of Control) 8.3 µM, PANC-1; for viability at 25 µM: read-out: Cell Viability (% of Control) 25 µM, PANC-1
in vitro = conditions: human, fibroblast viability in the tested concentration range, dose–response range 26–0.7 µM
Procedure: as §1, §2, §3

[1] = 0.7 μM, 72 h, dose–response, individual replicates
[2] = 1 μM, 72 h, dose–response, individual replicates
[3] = 1.5 μM, 72 h, dose–response, individual replicates
[4] = 2.3 μM, 72 h, dose–response, individual replicates
[5] = 3.4 μM, 72 h, dose–response, individual replicates
[6] = 5.1 μM, 72 h, dose–response, individual replicates
[7] = 7.7 μM, 72 h, dose–response, individual replicates
[8] = 17.3 μM, 72 h, dose–response, individual replicates
[9] = 26 μM, 72 h, dose–response, individual replicates
[10] = Homo sapiens, FaDu, 72 h, 72 h, first-set screening
[11] = Homo sapiens, FaDu, 72 h, 72 h, second-set screening
[12] = Homo sapiens, PANC-1, 72 h, 72 h, first-set screening
[13] = Homo sapiens, PANC-1, 72 h, 72 h, second-set screening

Cc1ccccc1CN1C(=O)C2=C(CCN(Cc3ccccc3)C2)N2CCN=C12 [ONC201, reference compound]
HEK293T WT Cell viability (% of controll) (HEK293T WT cells; 0.4 μM, 72 h): 105 % of controll and 96 % of controll and 95 % of controll | HEK293T WT Cell viability (% of controll) (HEK293T WT cells; 0.6 μM, 72 h): 70 % of controll and 65 % of controll and 68 % of controll | HEK293T WT Cell viability (% of controll) (HEK293T WT cells; 1.0 μM, 72 h): 32 % of controll and 31 % of controll | HEK293T WT Cell viability (% of controll) (HEK293T WT cells; 1.6 μM, 72 h): 25 % of controll and 29 % of controll | HEK293T WT Cell viability (% of controll) (HEK293T WT cells; 2.5 μM, 72 h): 19 % of controll and 22 % of controll and 23 % of controll | HEK293T WT Cell viability (% of controll) (HEK293T WT cells; 4.0 μM, 72 h): 19 % of controll and 22 % of controll and 20 % of controll | HEK293T WT Cell viability (% of controll) (HEK293T WT cells; 6.4 μM, 72 h): 19 % of controll and 22 % of controll and 20 % of controll | HEK293T WT Cell viability (% of controll) (HEK293T WT cells; 16.25 μM, 72 h): 18 % of controll and 19 % of controll | HEK293T WT Cell viability (% of controll) (HEK293T WT cells; 26 μM, 72 h): 15 % of controll and 16 % of controll and 18 % of controll | IC50 (HEK293T WT cells; Homo sapiens, HEK-293T, 72 h, read-out: IC50 (µM) HEK293T WT, 72 h treatment, ± SEM, best-fit values, n = 4): 0.6 ± 0.03 µM | IC50 (HEK293T WT cells; Homo sapiens, HEK-293T, read-out: HEK293T WT IC50 values, Mean, mean of independently fitted replicate IC50 values (Supplement S.6)): 0.56 µM | IC50 (HEK293T WT cells; Homo sapiens, HEK-293T, read-out: HEK293T WT IC50 values, individual replicates n1-n4, IC50 independently determined for each replicate measurement (Supplement S.6)): 0.394 µM | IC50 (HEK293T WT cells; read-out: HEK293T WT IC50 values, individual replicates n1-n4, IC50 independently determined for each replicate measurement (Supplement S.6)): 0.626 µM and 0.558 µM and 0.643 µM | Fadu Cell viability (% of controll) (Fadu cells; [1]): 93 % of controll | Fadu Cell viability (% of controll) (Fadu cells; [2]): 86 % of controll and 77 % of controll | Fadu Cell viability (% of controll) (Fadu cells; [3]): 59 % of controll and 51 % of controll | Fadu Cell viability (% of controll) (Fadu cells; [4]): 55 % of controll and 30 % of controll | Fadu Cell viability (% of controll) (Fadu cells; [5]): 26 % of controll | Fadu Cell viability (% of controll) (Fadu cells; [6]): 26 % of controll | Fadu Cell viability (% of controll) (Fadu cells; [7]): 28 % of controll and 27 % of controll | Fadu Cell viability (% of controll) (Fadu cells; [8]): 23 % of controll and 24 % of controll | Fadu Cell viability (% of controll) (Fadu cells; [9]): 22 % of controll and 24 % of controll | viability at 2.8 µM (Fadu cells; [10]): 31 ± 1% | viability at 2.8 µM (Fadu cells; [11]): 38 ± 5% | viability at 8.3 µM (Fadu cells; [10]): 29 ± 1% | viability at 8.3 µM (Fadu cells; [11]): 31 ± 2% | viability at 25 µM (Fadu cells; [10]): 27 ± 1% | viability at 25 µM (Fadu cells; [11]): 25 ± 3% | viability at 0.7 µM (Fadu cells; Homo sapiens, FaDu, 72 h, read-out: Fadu Cell viability (% of controll), 0.7 μM, 72 h, dose–response, individual replicates): 94% | viability at 1 µM (Fadu cells; Homo sapiens, FaDu, 72 h, read-out: Fadu Cell viability (% of controll), 1 μM, 72 h, dose–response, individual replicates): 85% | viability at 1.5 µM (Fadu cells; Homo sapiens, FaDu, 72 h, read-out: Fadu Cell viability (% of controll), 1.5 μM, 72 h, dose–response, individual replicates): 66% | viability at 3.4 µM (Fadu cells; Homo sapiens, FaDu, 72 h, read-out: Fadu Cell viability (% of controll), 3.4 μM, 72 h, dose–response, individual replicates): 40% | viability at 5.1 µM (Fadu cells; Homo sapiens, FaDu, 72 h, read-out: Fadu Cell viability (% of controll), 5.1 μM, 72 h, dose–response, individual replicates): 39% | viability at 7.7 µM (Fadu cells; Homo sapiens, FaDu, 72 h, read-out: Fadu Cell viability (% of controll), 7.7 μM, 72 h, dose–response, individual replicates): 38% | viability at 17.3 µM (Fadu cells; Homo sapiens, FaDu, 72 h, read-out: Fadu Cell viability (% of controll), 17.3 μM, 72 h, dose–response, individual replicates): 33% | viability at 26 µM (Fadu cells; Homo sapiens, FaDu, 72 h, read-out: Fadu Cell viability (% of controll), 26 μM, 72 h, dose–response, individual replicates): 31% | IC50 (Fadu cells; Homo sapiens, FaDu, 72 h, read-out: IC50 Value ± SEM Fadu, 72 h treatment, best-fit values, n = 3): 1300 ± 150 nM | IC50 (Fadu cells; Homo sapiens, FaDu, read-out: Fadu IC50 values, Mean, mean of independently fitted replicate IC50 values (Supplement S.6)): 1340 nM | IC50 (Fadu cells; Homo sapiens, FaDu, read-out: Fadu IC50 values, individual replicates n1-n3, IC50 independently determined for each replicate measurement (Supplement S.6)): 1350 nM | IC50 (Fadu cells; read-out: Fadu IC50 values, individual replicates n1-n3, IC50 independently determined for each replicate measurement (Supplement S.6)): 1410 nM and 1260 nM | PANC-1 Cell viability (% of controll) (PANC-1 cells; [1]): 92 % of controll and 97 % of controll | PANC-1 Cell viability (% of controll) (PANC-1 cells; [2]): 102 % of controll and 101 % of controll | PANC-1 Cell viability (% of controll) (PANC-1 cells; [3]): 86 % of controll and 101 % of controll | PANC-1 Cell viability (% of controll) (PANC-1 cells; [4]): 78 % of controll and 84 % of controll | PANC-1 Cell viability (% of controll) (PANC-1 cells; [5]): 57 % of controll and 60 % of controll | PANC-1 Cell viability (% of controll) (PANC-1 cells; [6]): 51 % of controll and 54 % of controll | PANC-1 Cell viability (% of controll) (PANC-1 cells; [7]): 43 % of controll and 48 % of controll | PANC-1 Cell viability (% of controll) (PANC-1 cells; [8]): 37 % of controll and 35 % of controll | PANC-1 Cell viability (% of controll) (PANC-1 cells; [9]): 32 % of controll and 29 % of controll | viability at 2.8 µM (PANC-1 cells; [12]): 69 ± 1% | viability at 2.8 µM (PANC-1 cells; [13]): 59 ± 9% | viability at 8.3 µM (PANC-1 cells; [12]): 58 ± 1% | viability at 8.3 µM (PANC-1 cells; [13]): 35 ± 2% | viability at 25 µM (PANC-1 cells; [12]): 53 ± 2% | viability at 25 µM (PANC-1 cells; [13]): 22 ± 2% | IC50 (PANC-1 cells; Homo sapiens, PANC-1, 72 h, read-out: IC50 Value ± SEM PANC-1, 72 h treatment, best-fit values, n = 3): 3100 ± 260 nM | viability at 0.7 µM (PANC-1 cells; Homo sapiens, PANC-1, 72 h, read-out: PANC-1 Cell viability (% of controll), 0.7 μM, 72 h, dose–response, individual replicates): 90% | viability at 1 µM (PANC-1 cells; Homo sapiens, PANC-1, 72 h, read-out: PANC-1 Cell viability (% of controll), 1 μM, 72 h, dose–response, individual replicates): 94% | viability at 1.5 µM (PANC-1 cells; Homo sapiens, PANC-1, 72 h, read-out: PANC-1 Cell viability (% of controll), 1.5 μM, 72 h, dose–response, individual replicates): 85% | viability at 2.3 µM (PANC-1 cells; Homo sapiens, PANC-1, 72 h, read-out: PANC-1 Cell viability (% of controll), 2.3 μM, 72 h, dose–response, individual replicates): 72% | viability at 3.4 µM (PANC-1 cells; Homo sapiens, PANC-1, 72 h, read-out: PANC-1 Cell viability (% of controll), 3.4 μM, 72 h, dose–response, individual replicates): 64% | viability at 5.1 µM (PANC-1 cells; Homo sapiens, PANC-1, 72 h, read-out: PANC-1 Cell viability (% of controll), 5.1 μM, 72 h, dose–response, individual replicates): 49% | viability at 7.7 µM (PANC-1 cells; Homo sapiens, PANC-1, 72 h, read-out: PANC-1 Cell viability (% of controll), 7.7 μM, 72 h, dose–response, individual replicates): 46% | viability at 17.3 µM (PANC-1 cells; Homo sapiens, PANC-1, 72 h, read-out: PANC-1 Cell viability (% of controll), 17.3 μM, 72 h, dose–response, individual replicates): 34% | viability at 26 µM (PANC-1 cells; Homo sapiens, PANC-1, 72 h, read-out: PANC-1 Cell viability (% of controll), 26 μM, 72 h, dose–response, individual replicates): 33% | IC50 (PANC-1 cells; Homo sapiens, PANC-1, read-out: PANC-1 IC50 values, Mean, mean of independently fitted replicate IC50 values (Supplement S.6)): 3050 nM | IC50 (PANC-1 cells; Homo sapiens, PANC-1, read-out: PANC-1 IC50 values, individual replicates n1-n3, IC50 independently determined for each replicate measurement (Supplement S.6)): 3220 nM | IC50 (PANC-1 cells; read-out: PANC-1 IC50 values, individual replicates n1-n3, IC50 independently determined for each replicate measurement (Supplement S.6)): 3140 nM and 2780 nM | viability at 72 h (in vitro): > 50%
